Results published in the supplement of paper PMC10307832.

What was measured:
Assay in all cases: relative viability (nuclei count vs DMSO), 5 days (fraction); higher = more cells survive
[1] = compound: CC1=C(C(=NN1)C)CC2=C(C3=C(S2)N(C(=O)N(C3=O)C)CC(C)C)C(=O)N4C[C@@H](CO4)O + O=C(c1cc(Cc2n[nH]c(=O)c3ccccc23)ccc1F)N1CCN(C(=O)C2CC2)CC1 [Olaparib] (partner 8 µM)
Summary of the method: (§1)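 Values are medians from duplicate plates. Each reflects relative viability, defined as the nuclei count of treated wells over that of vehicle wells. Lung cancer cell lines in 1536-well plates were pin-tool dosed one day after seeding with one drug alone or with a fixed anchor-drug dose plus five library-drug doses (not always all listed) in √10 steps, then fixed, stained and imaged at 4× after 5 days.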

[2] = compound: CC1=C(C(=NN1)C)CC2=C(C3=C(S2)N(C(=O)N(C3=O)C)CC(C)C)C(=O)N4C[C@@H](CO4)O + CS(=O)(=O)CCNCc1ccc(-c2ccc3ncnc(Nc4ccc(OCc5cccc(F)c5)c(Cl)c4)c3c2)o1 [Lapatinib] (partner 2 µM)
Summary of the method: as §1

[3] = compound: CC1=C(C(=NN1)C)CC2=C(C3=C(S2)N(C(=O)N(C3=O)C)CC(C)C)C(=O)N4C[C@@H](CO4)O + Cc1cc(Nc2cc(N3CCN(C)CC3)nc(Sc3ccc(NC(=O)C4CC4)cc3)n2)n[nH]1 [Tozasertib] (partner 0.1 µM)
Summary of the method: as §1

[4] = compound: CC1=C(C(=NN1)C)CC2=C(C3=C(S2)N(C(=O)N(C3=O)C)CC(C)C)C(=O)N4C[C@@H](CO4)O + CC(C)C[C@H](NC(=O)[C@H](Cc1ccccc1)NC(=O)c1cnccn1)B(O)O [Bortezomib] (partner 0.002 µM)
Summary of the method: as §1

Cell Line	relative viability ([1]; first compound 0.0025 µM)	relative viability ([1]; first compound 0.007906 µM)	relative viability ([1]; first compound 0.025 µM)	relative viability ([1]; first compound 0.07906 µM)	relative viability ([1]; first compound 0.25 µM)	relative viability ([2]; first compound 0.0025 µM)	relative viability ([2]; first compound 0.007906 µM)	relative viability ([2]; first compound 0.025 µM)	relative viability ([2]; first compound 0.07906 µM)	relative viability ([2]; first compound 0.25 µM)	relative viability ([3]; first compound 0.0025 µM)	relative viability ([3]; first compound 0.007906 µM)	relative viability ([3]; first compound 0.025 µM)	relative viability ([3]; first compound 0.07906 µM)	relative viability ([3]; first compound 0.25 µM)	relative viability ([4]; first compound 0.0025 µM)	relative viability ([4]; first compound 0.007906 µM)	relative viability ([4]; first compound 0.025 µM)	relative viability ([4]; first compound 0.07906 µM)	relative viability ([4]; first compound 0.25 µM)
EMC-BAC-2	0.546	0.464	0.474	0.489	0.527	0.604	0.987	0.907	0.861	0.957	0.268	0.296	0.272	0.3	0.317	1.15	1.15	1.04	1.06	1.1
LU99A	0.224	0.262	0.246	0.193	0.229	1.22	0.982	0.9	0.975	1.11	0.24	0.285	0.279	0.274	0.283	1.37	1.21	1.07	1.14	1.2
ABC-1	0.487	0.519		0.485	0.517	1.5	0.918	1.12	0.92	0.823	0.197	0.196	0.216	0.19	0.255	0.342	0.304	0.304	0.394	0.335
NCI-H2347	0.574	0.624	0.468	0.508	0.587	0.993	0.956	0.86	0.964	1.09	0.584	0.591	0.54	0.522	0.727	1.09	1.15	0.684	0.718	0.852
NCI-H1993	0.964	0.957	0.947	0.844	0.912	0.856	0.809	0.744	0.745	0.947	0.559	0.522	0.546	0.508	0.572	1.19	1.12	1.09	1.01	1.15
NCI-H322M	0.448	0.726	0.702	0.659	0.736	0.626	0.605	0.601	0.55	0.524	0.532	0.485	0.454	0.495	0.461	1.34	1.19	1.33	1.23	1.19
NCI-H838	0.741	0.714	0.639	0.65	0.604	1.03	1.06	0.907	0.778	0.96	0.268	0.25	0.212	0.22	0.242	0.88	1.13	0.786	0.738	0.929
HARA	1.1	0.76	0.689	0.542	0.81	0.664	0.81	0.637	0.671	0.696	0.129	0.125	0.105	0.111	0.112	1.21	1.15	1	0.979	1.1
NCI-H2087	0.67	0.661	0.598	0.727	0.701	1.11	1.15	1.09	0.939	1.23	0.275	0.233	0.281	0.219	0.33	0.996	0.716	0.705	0.909	1.05
NCI-H1437	0.624	0.622	0.635	0.643	0.613	0.925	0.981	0.738	0.795	0.922	0.399	0.409	0.408	0.409	0.438	0.669	0.568	0.516	0.441	0.601
NCI-H650	0.415	0.45	0.345	0.41	0.454	0.939	0.0037	0.753	0.893	0.956	0.77	0.747	0.702	0.692	0.739	1.02	0.714	0.671	0.757	0.825
COR-L23	0.404	0.33	0.298	0.328	0.325	0.883	0.846	0.656	0.826	0.923	0.155	0.163	0.172	0.18	0.163	1.07	0.895	0.888	0.754	0.865
COR-L 105	0.604	0.587	0.617	0.771	0.656	0.36	0.422	0.381	0.302	0.369	0.343	0.355	0.369	0.27	0.328	0.841	0.763	0.882	0.73	0.802
201T	0.852	0.815	0.828	0.845	0.853	1.05	1	1.03	0.986	1.06	1.05	0.92	0.915	0.904	1.03	1.15	1.07	1.03	1.06	1.12
HCC-44	1.02	1	0.952	0.891	1.05	1.01	1.1	0.988	0.908	1.11	0.888	0.746	0.915	0.882	1.13	0.901	0.904	0.9	0.893	0.797
NCI-H596	0.765	0.743	0.73	0.696	0.635	1.12	1.19	1.14	0.982	1.09	0.976	1.07	1.04	0.94	0.889	0.997	1.11	1.05	1.15	0.98
